Positions count from the first letter of the chain named. Like-named read-outs stand apart in the source and are kept apart here.

Consider two compounds from article PMC5524692, “Establishing a yeast-based screening system for discovery of human GLUT5 inhibitors and activators” (Scientific Reports, 2017).

In experiment [1] the target is T1, GLUT5 (Homo sapiens, UniProt P22732, S76I).
T1 construct: gene SLC2A5; GLUT5tr (truncated for the first seven amino acids at the N-terminus)
T1 sequence (P22732 8-501 S76I): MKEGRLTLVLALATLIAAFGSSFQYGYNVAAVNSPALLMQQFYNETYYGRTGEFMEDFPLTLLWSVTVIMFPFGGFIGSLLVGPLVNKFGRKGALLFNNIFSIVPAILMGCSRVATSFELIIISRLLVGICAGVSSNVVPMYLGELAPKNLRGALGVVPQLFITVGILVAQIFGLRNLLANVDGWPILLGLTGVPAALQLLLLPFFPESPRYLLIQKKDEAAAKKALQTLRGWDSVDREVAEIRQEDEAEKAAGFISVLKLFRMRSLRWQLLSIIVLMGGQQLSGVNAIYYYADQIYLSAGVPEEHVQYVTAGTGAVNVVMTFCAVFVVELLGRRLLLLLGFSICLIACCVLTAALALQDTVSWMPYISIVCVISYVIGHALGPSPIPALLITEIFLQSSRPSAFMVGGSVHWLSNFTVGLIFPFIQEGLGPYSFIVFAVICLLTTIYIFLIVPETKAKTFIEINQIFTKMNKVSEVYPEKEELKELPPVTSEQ
Kind of experiment: inhibition of […]-fructose uptake in hxt0 yeast cells expressing GLUT5. The experiment is classed as cell-based.

For experiment [2], the target named is T2, GLUT5 (Homo sapiens, UniProt P22732, S72Y).
T2 construct: gene SLC2A5; GLUT5tr (truncated for the first seven amino acids at the N-terminus)
T2 sequence (P22732 8-501 S72Y): T1 sequence (P22732 8-501 S76I) with S65Y, I69S
The description is as above. The class given is cell-based.

As to `O=C(O[C@@H]1Cc2c(O)cc(O)cc2O[C@@H]1c1ccc(O)c(O)c1)c1cc(O)c(O)c(O)c1` [ECG, (−)-epicatechin-gallate], the concentration for half-maximal inhibition (IC50) was found to be 140 ± 11 µM in experiment [1] (read-out: IC50 of ECG) and 180 ± 11 µM in experiment [2] (read-out: IC50 of ECG).
As for `CS(=O)(=O)c1ccc(Nc2ccc3c(c2)OCO3)c([N+](=O)[O-])c1` [MSNBA, N-[4-(methylsulfonyl)-2-nitrophenyl]-1,3-benzodioxol-5-amine], the 50% inhibitory concentration (IC50) in experiment [1] (read-out: IC50 of MSNBA) was found to be 6.3 ± 0.7 µM; in experiment [2] (read-out: IC50 of MSNBA) it was 26.6 ± 6.7 µM.

For orientation: IC50 means the midpoint of a concentration-inhibition curve.
